Measured values from patent publication US12318452B2, “Degraders of WEE1 kinase” (DANA-FARBER CANCER INSTITUTE, INC., priority 2018, dated 2025).

Columns and labels:
[1] = biological target: T1, Wee1 (Homo sapiens, UniProt P30291); experiment: Wee1 degradation immunoblot in MOLT4 cells, 5-hr dose response and time course; assay type: cell-based; parameters: endogenous in cells; host or cells: MOLT4 (wild type; CRBN-/- as control); settings: for Wee1 degradation: 5-hr exposure, 100 nM-10 μM
Protocol: Whole cell lysates for immunoblotting were prepared by pelleting cells from each cell line at 4° C. (300 g) for 5 minutes. The resulting cell pellets were washed 1× with ice-cold PBS and then resuspended in RIPA lysis buffer (Sigma, cat #R0278) supplemented with protease and phosphatase inhibitor tablets (Roche cat #4906845001). Lysates were clarified at 14,000 rpm for 15 minutes at 4° C. prior to quantification by BCA assay (Pierce™, cat #23225). Whole cell lysates were loaded into Bolt 4-12% Bis-Tris Gels (Thermo Fisher, cat #NW04120BOX) and separated by electrophoreses at 95 V for 1.5 hours. The gels were transferred to a nitrocellulose membrane using the iBlot® Gel Transfer at P3 for 7 minutes (Thermo Fisher, cat #IB23001) and then blocked for 1 hour at room temperature in Odyssey® blocking buffer (LICOR® Biosciences, cat #927-50010). Membranes were probed using antibodies against the relevant proteins at 4° C. overnight in 20% Odyssey® Blocking Buffer in 1×TBST. Membranes were then washed three times with 1×TBST (at least 5 minutes per wash) followed by incubation with the IRDye® goat anti-mouse (LICOR®, cat #926-32210) or goat anti-rabbit (LICOR®, cat #926-32211) secondary antibody (diluted 1:10,000) in 20% Odyssey® Blocking Buffer in 1×TBST for 1 hour at room temperature. After three washes with 1×TBST (at least 5 minutes per wash), the immunoblots were visualized using the ODYSSEY® Infrared Imaging System (LICOR®).
MOLT4 cells were plated at 1.5 million cells per well in a 6-well plate, with 3 mL of media per well. Cells were then immediately treated with the indicated concentration of the indicated compound and incubated for the indicated amount of time. Cells were collected by transferring each well to a 15 mL conical, centrifuging (1000 rpm for 3 min), then washing the cell pellet 2× with cold PBS. Each cell pellet was then lysed in 100 μL of RIPA lysis buffer (+protease/phosphatase inhibitors). Samples were normalized and prepped in 4×LDS+10% β-mercaptoethanol and boiled for 5 min at 95° C. Lysates were probed for specified proteins by western blotting using the Bolt® system (Life Technologies™)
To confirm that compound 13-mediated Wee1 degradation is CRBN dependent (FIG. 1D), Wee1 degradation profiles in parental versus CRBN^−/− MOLT4 cells were compared. In parental MOLT4 cells, compound 13 induced potent Wee1 degradation after 5 hours, with maximal degradation observed at 100 nM and a “hook effect” apparent at the top concentration of 10 μM, where compound 13:CRBN and compound 13-Wee1 binary complexes inhibit the formation of a productive ternary complex (Toure and Crews, Angew. Chem. 55:1966-1973 (2016)).
To evaluate the kinetics of Wee1 degradation, a time course study was performed in MOLT4 cells using 100 nM compound 13. Degradation occurred rapidly, with over 50% degradation achieved within 30 min, and complete degradation reached by 3 hr (FIG. 4C).

[2] = test system: OVCAR8 cells; experiment: Synergy experiment, CellTiter-Glo co-treatment for 72 hours; assay type: cell-based; settings: 72-hr co-treatment with Olaparib
[3] = test system: MOLT4 cells (parental, wild type); experiment: CellTiter-Glo cell viability, 72 hours; assay type: cell-based; settings: Homo sapiens, MOLT-4, 72 hours, read-out: Antiproliferative IC50
Protocol: The indicated cell lines were plated in flat bottom 384-well plates (Corning® cat #3570). MOLT4 cells were plated at a density of 3,000 cells per well in 50 μL media, while OVCAR8, COV362, and Kuramochi cells were plated at a density of 750 cells per well in 50 μL media. Cells were treated the next day (except for MOLT4 cells, which were treated the same day as plating) with 0.1 μL of the indicated compounds in a four-fold dilution series using the Janus pinner. Cells were incubated with compounds for 72 hours at 37° C. 5% CO2. Anti-proliferative effects were then assessed by CellTiter-Glo® Luminescent Cell Viability Assay (Promega™ cat #G7570) according to the manufacturer's standards, measuring luminescence using an EnVision® plate-reader. IC50 values were determined using a non-linear regression curve fit in GraphPad Prism 8. N=4 biological replicates were used for each treatment condition.
MOLT4 cells were plated in a 384-well plate at 5,000 cells per well in 50 μL media (RPMI+10% FBS+1% Penn/Strep) and treated with 0.1 μL of the candidate compounds in four-fold dilution series using the Janus pinner. Cells were incubated with compounds for 72 hours at 37° C. 5% CO2. Anti-proliferative effects of these compounds were assessed 72 hours after compound addition using CellTiter-Glo® (Promega, cat #G7571). All proliferation assays were performed in biological quadruplicate. […] Effects upon cell viability for compound 13 in the MOLT4 WT cells are therefore likely driven in part by Wee1 inhibition, and in part by CRBN-mediated Wee1 degradation. […] Degradation of Wee1 with compound 21 was mediated by VHL.

[4] = biological target: T1, Wee1; experiment: LanthaScreen FRET-based biochemical binding assay for Wee1; settings: LanthaScreen Binding activity assay; average of two replicates ± SD
Protocol: (§1) LanthaScreen™ assays were conducted for Wee1 in a 10-point dose response as performed in the commercial assay service by Life Technologies™. Z′-LYTE™ assays were conducted for PLK1 as performed in the commercial assay service by Life Technologies™ in a 10-point dose response using Km ATP concentrations.

[5] = biological target: PLK1 (Homo sapiens, UniProt P53350); experiment: Z′-LYTE kinase activity assay for PLK1; assay type: biochemical; parameters: purchased Life Technologies (Invitrogen) commercial assay service; settings: Km ATP, average of two replicates ± SD
Protocol: as §1
The selectivity of Wee1 degradation was then assessed by performing multiplexed mass spectrometry (MS)-based proteomics in MOLT4 cells treated with 100 nM of compound 13 for 2 hours (Donovan et al., Elife 7:e38430 (2018)).

[6] = 100 nM, MOLT4 cells, time course

T1 sequence (P30291 whole entry): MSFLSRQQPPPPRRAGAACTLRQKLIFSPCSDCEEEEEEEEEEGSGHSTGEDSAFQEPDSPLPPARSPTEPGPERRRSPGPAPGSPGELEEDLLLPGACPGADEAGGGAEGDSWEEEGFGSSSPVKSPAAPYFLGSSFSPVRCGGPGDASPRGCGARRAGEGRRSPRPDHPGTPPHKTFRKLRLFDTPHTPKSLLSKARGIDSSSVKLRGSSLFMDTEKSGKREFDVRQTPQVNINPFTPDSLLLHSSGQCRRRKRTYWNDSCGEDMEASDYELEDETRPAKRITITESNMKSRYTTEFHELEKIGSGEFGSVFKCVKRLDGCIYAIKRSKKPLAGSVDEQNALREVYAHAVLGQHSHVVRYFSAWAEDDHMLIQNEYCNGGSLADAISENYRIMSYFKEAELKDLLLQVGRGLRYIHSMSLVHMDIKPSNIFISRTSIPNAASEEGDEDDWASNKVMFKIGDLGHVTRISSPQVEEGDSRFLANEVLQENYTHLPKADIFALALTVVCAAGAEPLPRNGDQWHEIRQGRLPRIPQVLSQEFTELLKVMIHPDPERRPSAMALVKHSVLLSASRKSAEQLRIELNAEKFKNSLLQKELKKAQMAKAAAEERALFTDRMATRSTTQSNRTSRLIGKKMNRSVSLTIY
Chain of PLK1 (P53350 whole entry): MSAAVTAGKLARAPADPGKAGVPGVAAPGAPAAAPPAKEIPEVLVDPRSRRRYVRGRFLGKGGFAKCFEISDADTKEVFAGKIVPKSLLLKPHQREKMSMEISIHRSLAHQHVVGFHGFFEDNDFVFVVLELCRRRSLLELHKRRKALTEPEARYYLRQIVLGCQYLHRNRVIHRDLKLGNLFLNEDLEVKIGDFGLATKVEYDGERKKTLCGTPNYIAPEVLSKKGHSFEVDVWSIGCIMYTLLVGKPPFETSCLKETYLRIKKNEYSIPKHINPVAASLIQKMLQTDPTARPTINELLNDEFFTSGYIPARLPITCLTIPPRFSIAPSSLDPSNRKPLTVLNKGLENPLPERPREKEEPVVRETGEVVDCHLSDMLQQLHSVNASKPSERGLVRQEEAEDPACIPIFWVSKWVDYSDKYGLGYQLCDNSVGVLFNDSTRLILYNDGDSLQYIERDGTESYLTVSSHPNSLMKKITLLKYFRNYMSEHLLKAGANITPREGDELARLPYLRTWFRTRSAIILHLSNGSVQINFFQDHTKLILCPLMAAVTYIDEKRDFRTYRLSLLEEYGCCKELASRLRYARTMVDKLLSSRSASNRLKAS

C=CCn1c(=O)c2cnc(Nc3ccc(N4CCN(CCCNc5cccc6c5C(=O)N(C5CCC(=O)NC5=O)C6=O)CC4)cc3)nc2n1-c1cccc(C(C)(C)O)n1 (centres unmarked) [Compound 13, 4-((3-(4-(4-((2-allyl-1-(6-(2-hydroxypropan-2-yl)pyridin-2-yl)-3-oxo-2,3-dihydro-1H-pyrazolo[3,4-d]pyrimidin-6-yl)amino)phenyl)piperazin-1-yl)propyl)amino)-2-(2,6-dioxopiperidin-3-yl)isoindoline-1,3-dione]
Time to complete Wee1 degradation ([1]; 100 nM, MOLT4 cells): ≤ 3 h
Wee1 degradation achieved within 30 min [1, 6]: over 50%
Effect on Wee1 abundance in CRBN−/− cells ([1]; CRBN−/− MOLT4 cells, 5 hours): no effect on Wee1 abundance
Wee1 degradation ([1]; MOLT4 cells): degraded Wee1
Concentration giving maximal (sufficient) Wee1 degradation ([1]; MOLT4 cells, 5-hr treatment): 100 nM
Concentration at which hook effect is apparent ([1]; parental MOLT4 cells, 5 hours): 10 µM
Duration of sustained loss of Wee1 ([1]; single 100 nM treatment, MOLT4 cells): at least 48 hrs
Synergy with Olaparib [2]: synergized with Olaparib
IC50 [3]: 390 nM
IC50 [4]: 3.58 ± 0.36 nM
IC50 [5]: 102 nM

C=CCn1c(=O)c2cnc(Nc3ccc(N4CCN(CCCNc5cccc6c5C(=O)N(C5CCC(=O)N(C)C5=O)C6=O)CC4)cc3)nc2n1-c1cccc(C(C)(C)O)n1 (centres unmarked) [Compound 20, 4-((3-(4-(4-((2-allyl-1-(6-(2-hydroxypropan-2-yl)pyridin-2-yl)-3-oxo-2,3-dihydro-1H-pyrazolo[3,4-d]pyrimidin-6-yl)amino)phenyl)piperazin-1-yl)propyl)amino)-2-(1-methyl-2,6-dioxopiperidin-3-yl)isoindoline-1,3-dione]
Effect on Wee1 protein levels over time [1, 6]: no effect on Wee1 protein levels
Wee1 degradation ([1]; MOLT4 cells): did not degrade Wee1
Synergy with Olaparib [2]: less synergistic activity
IC50 [3]: 4560 nM
IC50 [4]: 7.38 ± 0.47 nM
IC50 [5]: 43 ± 4 nM
